Reference: patent US7329510B2, “Full length human HCN1Ih channel subunit and variants” (N.V. Organon, priority 2000, dated 2008)

Biological target: T1, human HCN1 channel (Homo sapiens, UniProt O60741, S680F)
T1 construct: Effect of ZD 7288 (100 micromolar) on hHCN1 (full-length) currents; expressed in transfected cells; host or cells: HEK 293F
T1 sequence (O60741 1-890 S680F): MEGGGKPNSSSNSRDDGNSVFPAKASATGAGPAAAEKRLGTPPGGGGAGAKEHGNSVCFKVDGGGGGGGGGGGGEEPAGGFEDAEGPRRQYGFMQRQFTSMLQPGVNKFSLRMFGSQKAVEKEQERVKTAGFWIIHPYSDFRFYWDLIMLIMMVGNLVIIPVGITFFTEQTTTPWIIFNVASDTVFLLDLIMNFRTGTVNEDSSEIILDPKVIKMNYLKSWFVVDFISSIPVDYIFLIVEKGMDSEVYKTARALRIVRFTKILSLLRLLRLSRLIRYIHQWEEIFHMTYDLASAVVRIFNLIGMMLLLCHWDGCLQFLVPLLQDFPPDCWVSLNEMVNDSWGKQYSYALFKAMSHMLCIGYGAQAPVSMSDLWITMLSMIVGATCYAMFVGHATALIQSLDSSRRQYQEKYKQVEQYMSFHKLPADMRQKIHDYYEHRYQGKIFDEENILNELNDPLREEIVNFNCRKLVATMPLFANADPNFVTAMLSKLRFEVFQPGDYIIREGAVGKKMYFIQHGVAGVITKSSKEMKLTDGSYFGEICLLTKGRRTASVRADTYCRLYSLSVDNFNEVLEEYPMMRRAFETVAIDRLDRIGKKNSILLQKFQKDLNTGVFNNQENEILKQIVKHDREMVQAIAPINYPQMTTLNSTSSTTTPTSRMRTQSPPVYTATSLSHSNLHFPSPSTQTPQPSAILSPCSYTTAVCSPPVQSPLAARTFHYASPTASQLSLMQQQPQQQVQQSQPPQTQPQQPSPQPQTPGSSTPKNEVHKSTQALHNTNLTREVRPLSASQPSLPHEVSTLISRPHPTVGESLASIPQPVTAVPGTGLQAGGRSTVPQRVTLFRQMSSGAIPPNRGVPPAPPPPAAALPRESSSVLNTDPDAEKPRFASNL
Assay: Whole-cell patch-clamp functional assay for human HCN1 channel currents
Assay type: cell-based
Conditions: HEK293 cells expressing human HCN1, step to -120 mV from holding -40 mV
Procedure: Human HCN1 channel currents were detected under voltage-clamp using the whole-cell configuration of the patch-clamp technique. Appropriate cells (HEK293) expressing human HCN1 channel subunits were placed in a recording chamber containing extracellular solution (Sodium chloride 135 mM; Potassium chloride 5 mM; Calcium chloride 1.8 mM; Magnesium chloride 0.5 mM; HEPES 5 mM) at a temperature of 20-25 degrees centigrade. In some experiments the extracellular solution contained 30 mM Potassium chloride, in which cases the Sodium chloride concentration was reduced to 110 mM. […] The membrane current was recorded throughout the experiment. […] The membrane current was measured just after (1-10 milliseconds) the start of the hyperpolarising step and just before (10-100 milliseconds) its end. […] For each cell, the current amplitude was determined first in normal extracellular solution and then in extracellular solution containing caesium chloride (FIG. 3) or ZD 7288 (FIGS. 4 and 7). Alternatively, the effect of caesium chloride (5 mM) on human HCN1 channel currents was determined by measuring the current-voltage relationship in normal extracellular solution and also in extracellular solution containing caesium chloride (FIG. 6). […]

Row | Effect on human HCN1 channel currents (ZD 7288 100 micromolar in extracellular solution) | SMILES | Effect on human HCN1 channel currents (caesium chloride 5 mM in extracellular solution)
1 | reduced | CCN(c1ccccc1)c1cc(=NC)n(C)c(C)n1.Cl [ZD 7288] | –
2 | – | [Cl-].[Cs+] [caesium chloride] | reduced
